Measurements as given in patent publication US9206177B2, “Substituted dimeric quinazoline-2,4-diones as FGF receptor agonists” (Sanofi, priority 2011, dated 2015).

Tested on: human venous endothelial cells (HUVECs)
Assay: In vitro angiogenesis model (pseudotubule length of HUVECs on matrigel/collagen)
Type: cell-based
Parameters: % activation with respect to FGF2 (in vitro): concentration or dose not given beside the values
Conditions: for EC50 / % activation with respect to FGF2 (in vitro): in vitro; for % activation with respect to FGF2 (in vitro): relative to FGF2
Protocol: In Vitro Angiogenesis Model
The products are tested for their ability to cause rearrangement of human venous endothelial cells (HUVECs) on matrigel (Becton dickinson 356230) diluted in collagen (rat tail collagen, type I: Becton dickinson 354236). After 24 hours, the cells are observed under a microscope with a ×4 objective and the length of the pseudotubules is measured by means of an image analyser (BIOCOM-logiciel Visiolab 2000).

| Structure (SMILES) | EC50 (Homo sapiens, HUVEC) [nM] | % activation with respect to FGF2 (in vitro) [%] | active on the in vitro angiogenesis model (at a concentration of 10 nM) | EC50 [nM] |
| --- | --- | --- | --- | --- |
| Cc1c(-c2cccc(OCCOCCOCCOCCOc3cccc(-c4c(C)c(C(=O)c5ccc6[nH]c(=O)n(CC(=O)O)c(=O)c6c5)n5ccccc45)c3)c2)c2ccccn2c1C(=O)c1ccc2[nH]c(=O)n(CC(=O)O)c(=O)c2c1 [Compound 2, 2,2′-{oxybis[ethane-2,1-diyloxyethane-2,1-diyloxybenzene-3,1-diyl(2-methylindolizine-1,3-diyl)carbonyl(2,4-dioxo-1,4-dihydroquinazoline-6,3(2H)-diyl)]}diacetic acid] | < 1 | 44 | – | – |
| Cc1c(-c2ccc(OCCOCCOCCOc3ccc(-c4c(C)c(C(=O)c5ccc6[nH]c(=O)n(CC(=O)O)c(=O)c6c5)n5ccccc45)cc3)cc2)c2ccccn2c1C(=O)c1ccc2[nH]c(=O)n(CC(=O)O)c(=O)c2c1 [Compound 3, 2,2′-{ethane-1,2-diylbis[oxyethane-2,1-diyloxybenzene-4,1-diyl(2-methylindolizine-1,3-diyl)carbonyl(2,4-dioxo-1,4-dihydroquinazoline-6,3(2H)-diyl)]}diacetic acid] | < 1 | 74 | active | – |
| Cc1c(-c2ccc(OCC(=O)NCCCCNC(=O)COc3ccc(-c4c(C)c(C(=O)c5ccc6[nH]c(=O)n(CC(=O)O)c(=O)c6c5)n5ccccc45)cc3)cc2)c2ccccn2c1C(=O)c1ccc2[nH]c(=O)n(CC(=O)O)c(=O)c2c1 [Compound 5] | – | 30 | – | < 100 |
| Cc1c(-c2cccc(OCC(=O)NCCCCCCNC(=O)COc3cccc(-c4c(C)c(C(=O)c5ccc6[nH]c(=O)n(CC(=O)O)c(=O)c6c5)n5ccccc45)c3)c2)c2ccccn2c1C(=O)c1ccc2[nH]c(=O)n(CC(=O)O)c(=O)c2c1 [Compound 6] | – | 29 | – | < 100 |
| Cc1c(-c2cccc(OCC(=O)NCCCCNC(=O)COc3cccc(-c4c(C)c(C(=O)c5ccc6[nH]c(=O)n(CC(=O)O)c(=O)c6c5)n5ccccc45)c3)c2)c2ccccn2c1C(=O)c1ccc2[nH]c(=O)n(CC(=O)O)c(=O)c2c1 [Compound 7] | – | 28 | – | < 100 |
| Cc1c(-c2ccc(OCCCCCN(CCCCCOc3ccc(-c4c(C)c(C(=O)c5ccc6c(=O)n(CC(=O)O)c(=O)[nH]c6c5)n5ccccc45)cc3)CCOCCO)cc2)c2ccccn2c1C(=O)c1ccc2c(=O)n(CC(=O)O)c(=O)[nH]c2c1 [Compound 8, 2,2′-({[2-(2-hydroxyethoxy)ethyl]imino}bis[pentane-5,1-diyloxybenzene-4,1-diyl(2-methylindolizine-1,3-diyl)carbonyl(2,4-dioxo-1,4-dihydroquinazoline-7,3(2H)-diyl)])diacetic acid] | < 1 | 42 | – | – |
| CCN(CCCCCOc1ccc(-c2c(C)c(C(=O)c3ccc4c(=O)n(CC(=O)O)c(=O)[nH]c4c3)n3ccccc23)cc1)CCCCCOc1ccc(-c2c(C)c(C(=O)c3ccc4c(=O)n(CC(=O)O)c(=O)[nH]c4c3)n3ccccc23)cc1 [Compound 9, 2,2′-{(ethylimino)bis[pentane-5,1-diyloxybenzene-4,1-diyl(2-methylindolizine-1,3-diyl)carbonyl(2,4-dioxo-1,4-dihydroquinazoline-7,3(2H)-diyl)]}diacetic acid] | < 100 | 28 | – | – |
| Cc1c(-c2ccc(OCCCCCN(CCCCCOc3ccc(-c4c(C)c(C(=O)c5ccc6c(=O)n(CC(=O)O)c(=O)[nH]c6c5)n5ccccc45)cc3)CCN3CCOCC3)cc2)c2ccccn2c1C(=O)c1ccc2c(=O)n(CC(=O)O)c(=O)[nH]c2c1 [Compound 10, 2,2′-({[2-(morpholin-4-yl)ethyl]imino}bis[pentane-5,1-diyloxybenzene-4,1-diyl(2-methylindolizine-1,3-diyl)carbonyl(2,4-dioxo-1,4-dihydroquinazoline-7,3(2H)-diyl)])diacetic acid] | < 1 | 41 | – | – |
| Cc1c(-c2ccc(OCCCCCN(CCCCCOc3ccc(-c4c(C)c(C(=O)c5ccc6c(=O)n(CC(=O)O)c(=O)[nH]c6c5)n5ccccc45)cc3)CCN3CCN(C)CC3)cc2)c2ccccn2c1C(=O)c1ccc2c(=O)n(CC(=O)O)c(=O)[nH]c2c1 [Compound 11, 2,2′-({[2-(4-methylpiperazin-1-yl)ethyl]imino}bis[pentane-5,1-diyloxybenzene-4,1-diyl(2-methylindolizine-1,3-diyl)carbonyl(2,4-dioxo-1,4-dihydroquinazoline-7,3(2H)-diyl)])diacetic acid] | < 1 | 63 | – | – |
| Cc1c(-c2ccc(OCCCCCN(CCCCCOc3ccc(-c4c(C)c(C(=O)c5ccc6c(=O)n(CC(=O)O)c(=O)[nH]c6c5)n5ccccc45)cc3)Cc3ccncc3)cc2)c2ccccn2c1C(=O)c1ccc2c(=O)n(CC(=O)O)c(=O)[nH]c2c1 [Compound 12, 2,2′-{[(pyridin-4-ylmethyl)imino]bis[pentane-5,1-diyloxybenzene-4,1-diyl(2-methylindolizine-1,3-diyl)carbonyl(2,4-dioxo-1,4-dihydroquinazoline-7,3(2H)-diyl)]}diacetic acid] | < 1 | 42 | – | – |
| Cc1c(-c2ccc(OCCCCCN(CCCCCOc3ccc(-c4c(C)c(C(=O)c5ccc6c(=O)n(CC(=O)O)c(=O)[nH]c6c5)n5ccccc45)cc3)Cc3ccc(N(C)C)cc3)cc2)c2ccccn2c1C(=O)c1ccc2c(=O)n(CC(=O)O)c(=O)[nH]c2c1 [Compound 13, 2,2′-({[4-(dimethylamino)benzyl]imino}bis[pentane-5,1-diyloxybenzene-4,1-diyl(2-methylindolizine-1,3-diyl)carbonyl(2,4-dioxo-1,4-dihydroquinazoline-7,3(2H)-diyl)])diacetic acid] | < 100 | 23 | – | – |
| CCN(CC)CCN(CCCCCOc1ccc(-c2c(C)c(C(=O)c3ccc4c(=O)n(CC(=O)O)c(=O)[nH]c4c3)n3ccccc23)cc1)CCCCCOc1ccc(-c2c(C)c(C(=O)c3ccc4c(=O)n(CC(=O)O)c(=O)[nH]c4c3)n3ccccc23)cc1 [Compound 14, 2,2′-({[2-(diethylamino)ethyl]imino}bis[pentane-5,1-diyloxybenzene-4,1-diyl(2-methylindolizine-1,3-diyl)carbonyl(2,4-dioxo-1,4-dihydroquinazoline-7,3(2H)-diyl)])diacetic acid] | < 1 | 62 | – | – |
| Cc1c(-c2ccc(OCCCN3CCN(CCCOc4ccc(-c5c(C)c(C(=O)c6ccc7c(=O)n(CC(=O)O)c(=O)[nH]c7c6)n6ccccc56)cc4)CC3)cc2)c2ccccn2c1C(=O)c1ccc2c(=O)n(CC(=O)O)c(=O)[nH]c2c1 [Compound 15, 2,2′-{piperazine-1,4-diylbis[propane-3,1-diyloxybenzene-4,1-diyl(2-methylindolizine-1,3-diyl)carbonyl(2,4-dioxo-1,4-dihydroquinazoline-7,3(2H)-diyl)]}diacetic acid] | < 100 | 24 | – | – |
